Earlier results on 5 compounds are cited in patent publication US20240131064A1, “TREATMENT OF CANCER PATIENTS WITH TUMOR INFILTRATING LYMPHOCYTE THERAPIES IN COMBINATION WITH BRAF INHIBITORS AND/OR MEK INHIBITORS” (Iovance Biotherapeutics, Inc., priority 2020, published 2024).

Read-outs that look alike come from different tables or passages of the source.

For data set [1] the following is noted: percent of patients.
Data set [2] deals with BRAF V600E mutation-positive, unresectable or metastatic melanoma. As to conditions: 187 patients treated, no prior BRAF or MEK inhibitor.

Turning to “nivolumab: PD-1 inhibitor, heavy chain SEQ ID NO:158, light chain SEQ ID NO:159”, the “rate of durable responses relative to aldesleukin treatment” value in the data set with metastatic melanoma (metastatic melanoma) is on record as “approximately double”. In the data set on metastatic melanoma (previously treated patients), the ORR is reported as 32%. Further, in data set [1], the “Treatment-related adverse events leading to discontinuation of therapy” value was 7.7%.

“pembrolizumab: PD-1 inhibitor, heavy chain SEQ ID NO:168, light chain SEQ ID NO:169”: the ORR with metastatic melanoma (following prior therapy with ipilimumab) is 21%. Besides, the “rate of durable responses relative to aldesleukin treatment” value in the data set on metastatic melanoma (metastatic melanoma) is reported as “approximately double”.

Take “ipilimumab: CTLA-4 inhibitor, heavy chain SEQ ID NO:208, light chain SEQ ID NO:209”: the “Treatment-related adverse events leading to discontinuation of therapy” value in data set [1] is on record as 14.8%.

As for `CC(C)(C)c1nc(-c2cccc(NS(=O)(=O)c3c(F)cccc3F)c2F)c(-c2ccnc(N)n2)s1` [dabrafenib], the “median duration of response (DOR)” value in data set [2] is recorded as 5.6 months.

For the compound “des-alanyl-1, serine-125 human IL-2 [aldesleukin]”, the “overall objective response rate (ORR)” value in the data set on metastatic melanoma (high-dose aldesleukin, metastatic melanoma) was 16%. In addition, in the data set with metastatic melanoma (high-dose aldesleukin, treated patients with metastatic melanoma), the “durable complete tumor regressions (CRs)” value is “up to 6%”.
